Laboratory results reported in article PMC5903252 (British Journal of Clinical Pharmacology, 2018).
Entries after “also recorded” stand apart in the source; their conditions may differ.

Columns and labels:
PT/INR = assay: Prothrombin time/international normalized ratio; format: in vivo, human; conditions: part A and part B
aPTT = assay: Activated partial thromboplastin time; format: in vivo, human; conditions: for Mean aPTT (± SEM) / aPTT % Change from baseline: immediately prior to the end of infusion
[1] = Plasma pharmacokinetics of BMS-962212 after IV infusion; conditions: for Tmax / half-life / AUC(0-inf) / AUC(0-t) / Cmax / clearance / Vd: human, in vivo
[2] = Safety and tolerability, adverse events in healthy subjects; format: in vivo, human
Renal safety assessment = format: in vivo, human
rabbit models = conditions: preclinical; cited from earlier work
[3] = part A 2-h IV infusion 1.5 mg h^−1
[4] = part A 2-h IV infusion 4 mg h^−1
[5] = part A 2-h IV infusion 10 mg h^−1
[6] = part A 2-h IV infusion 25 mg h^−1
[7] = part B 5-day IV infusion 1 mg h^−1, Japanese subjects
[8] = part B 5-day IV infusion 1 mg h^−1, non-Japanese subjects
[9] = part B 5-day IV infusion 3 mg h^−1, Japanese subjects
[10] = part B 5-day IV infusion 3 mg h^−1, non-Japanese subjects
[11] = part B 5-day IV infusion 9 mg h^−1, Japanese subjects
[12] = part B 5-day IV infusion 9 mg h^−1, non-Japanese subjects
[13] = part B 5-day IV infusion 20 mg h^−1, Japanese subjects
[14] = part B 5-day IV infusion 20 mg h^−1, non-Japanese subjects
[15] = part B 1 mg h^−1, Japanese ethnicity (n = 4), geometric mean (CV%)
[16] = part B 1 mg h^−1, Non-Japanese ethnicity (n = 4), geometric mean (CV%)
[17] = part B 3 mg h^−1, Japanese ethnicity (n = 4), geometric mean (CV%)
[18] = part B 3 mg h^−1, Non-Japanese ethnicity (n = 4), geometric mean (CV%)
[19] = part B 9 mg h^−1, Japanese ethnicity (n = 4), geometric mean (CV%)
[20] = part B 9 mg h^−1, Non-Japanese ethnicity (n = 4), geometric mean (CV%)
[21] = part B 20 mg h^−1, Japanese ethnicity (n = 4), geometric mean (CV%)
[22] = part B 20 mg h^−1, Non-Japanese ethnicity (n = 4), geometric mean (CV%)
[23] = part A panel 1, 1.5 mg h^−1 2-h IV infusion, peak at 12 h after initiation

## CN1CCN(c2cccc3c2CCN(C(=O)/C=C/c2c(-n4cnnn4)ccc(Cl)c2F)[C@@H]3C(=O)Nc2ccc(C(=O)O)cc2)C(=O)C1 [BMS‐962212]
PT/INR
  PT/INR change: did not change; also recorded: no effect on PT/INR
aPTT; [3]
  Mean aPTT (± SEM): 45.8 ± 2.5 s
  aPTT % Change from baseline: 35%
aPTT; [4]
  Mean aPTT (± SEM): 49.2 ± 2.6 s
  aPTT % Change from baseline: 51%
aPTT; [5]
  Mean aPTT (± SEM): 53.0 ± 4.2 s
  aPTT % Change from baseline: 81%
aPTT; [6]
  Mean aPTT (± SEM): 61.3 ± 3.8 s
  aPTT % Change from baseline: 94%
aPTT; part B 20 mg h^−1
  maximum mean aPTT change from baseline: 92%
aPTT; [7]
  Mean aPTT (± SEM): 37.7 ± 2.0 s
  aPTT % Change from baseline: 31%
aPTT; [8]
  Mean aPTT (± SEM): 42.4 ± 1.8 s
  aPTT % Change from baseline: 31%
aPTT; [9]
  Mean aPTT (± SEM): 46.1 ± 1.2 s
  aPTT % Change from baseline: 47%
aPTT; [10]
  Mean aPTT (± SEM): 44.0 ± 1.9 s
  aPTT % Change from baseline: 49%
aPTT; [11]
  Mean aPTT (± SEM): 52.0 ± 1.3 s
  aPTT % Change from baseline: 63%
aPTT; [12]
  Mean aPTT (± SEM): 52.6 ± 6.8 s
  aPTT % Change from baseline: 76%
aPTT; [13]
  Mean aPTT (± SEM): 63.0 ± 4.9 s
  aPTT % Change from baseline: 92%
aPTT; [14]
  Mean aPTT (± SEM): 57.2 ± 4.0 s
  aPTT % Change from baseline: 83%
aPTT; part B, day 1
  time to maximal effect on aPTT after initiation of the IV infusion: approximately 2 h
[1]
  Tmax: 1 to 2 h
[1]; 1 mg, t 1/2, part B 1 mg h^−1, Japanese ethnicity (n = 4), mean (CV%)
  half-life: 7.32 h
[1]; 1 mg, t 1/2, part B 1 mg h^−1, Non-Japanese ethnicity (n = 4), mean (CV%)
  half-life: 5.3 h
[1]; 3 mg, t 1/2, part B 3 mg h^−1, Japanese ethnicity (n = 4), mean (CV%)
  half-life: 6.42 h
[1]; 3 mg, t 1/2, part B 3 mg h^−1, Non-Japanese ethnicity (n = 4), mean (CV%)
  half-life: 6.05 h
[1]; 9 mg, t 1/2, part B 9 mg h^−1, Japanese ethnicity (n = 4), mean (CV%)
  half-life: 8.28 h
[1]; 9 mg, t 1/2, part B 9 mg h^−1, Non-Japanese ethnicity (n = 4), mean (CV%)
  half-life: 8.32 h
[1]; 20 mg, t 1/2, part B 20 mg h^−1, Japanese ethnicity (n = 4), mean (CV%)
  half-life: 8.28 h
[1]; 20 mg, t 1/2, part B 20 mg h^−1, Non-Japanese ethnicity (n = 4), mean (CV%)
  half-life: 7.23 h
[1]; iv, 1 mg h^−1
  AUC(0-inf): 6380 ng·h/mL
  AUC(0-t): 6300 ng·h/mL
  Cmax: 58.3 ng/mL
  Tmax: 24 h
[1]; iv, 1 mg h^−1, CL, part B 5-day IV infusion 1 mg h^−1, geometric mean (CV%)
  clearance: 314 mL/min
[1]; iv, 1 mg h^−1, Vz, part B 5-day IV infusion 1 mg h^−1, geometric mean (CV%)
  Vd: 188 L
[1]; iv, 1 mg h^−1, t1/2, part B 5-day IV infusion 1 mg h^−1, geometric mean (CV%)
  half-life: 6.25 h
[1]; iv, 1.5 mg h^−1
  AUC(0-inf): 180 ng·h/mL
  AUC(0-t): 122 ng·h/mL
  Cmax: 81.9 ng/mL
  Tmax: 1.5 h
[1]; iv, 1.5 mg h^−1, CL, part A 2-h IV infusion 1.5 mg h^−1, geometric mean (CV%)
  clearance: 276 mL/min
[1]; iv, 1.5 mg h^−1, Vz, part A 2-h IV infusion 1.5 mg h^−1, geometric mean (CV%)
  Vd: 72.6 L
[1]; iv, 1.5 mg h^−1, t1/2, part A 2-h IV infusion 1.5 mg h^−1, geometric mean (CV%)
  half-life: 2.04 h
[1]; iv, 3 mg h^−1
  AUC(0-inf): 21400 ng·h/mL
  AUC(0-t): 21200 ng·h/mL
  Cmax: 202 ng/mL
  Tmax: 60 h
[1]; iv, 3 mg h^−1, CL, part B 5-day IV infusion 3 mg h^−1, geometric mean (CV%)
  clearance: 280 mL/min
[1]; iv, 3 mg h^−1, Vz, part B 5-day IV infusion 3 mg h^−1, geometric mean (CV%)
  Vd: 165 L
[1]; iv, 3 mg h^−1, t1/2, part B 5-day IV infusion 3 mg h^−1, geometric mean (CV%)
  half-life: 6.22 h
[1]; iv, 4 mg h^−1
  AUC(0-inf): 377 ng·h/mL
  AUC(0-t): 233 ng·h/mL
  Cmax: 182 ng/mL
  Tmax: 2 h
[1]; iv, 4 mg h^−1, CL, part A 2-h IV infusion 4 mg h^−1, geometric mean (CV%)
  clearance: 358 mL/min
[1]; iv, 4 mg h^−1, Vz, part A 2-h IV infusion 4 mg h^−1, geometric mean (CV%)
  Vd: 118 L
[1]; iv, 4 mg h^−1, t1/2, part A 2-h IV infusion 4 mg h^−1, geometric mean (CV%)
  half-life: 3.95 h
[1]; iv, 9 mg h^−1
  AUC(0-inf): 55500 ng·h/mL
  AUC(0-t): 54800 ng·h/mL
  Cmax: 520 ng/mL
  Tmax: 36 h
[1]; iv, 9 mg h^−1, CL, part B 5-day IV infusion 9 mg h^−1, geometric mean (CV%)
  clearance: 324 mL/min
[1]; iv, 9 mg h^−1, Vz, part B 5-day IV infusion 9 mg h^−1, geometric mean (CV%)
  Vd: 216 L
[1]; iv, 9 mg h^−1, t1/2, part B 5-day IV infusion 9 mg h^−1, geometric mean (CV%)
  half-life: 8.65 h
[1]; iv, 10 mg h^−1
  AUC(0-inf): 1050 ng·h/mL
  AUC(0-t): 664 ng·h/mL
  Cmax: 505 ng/mL
  Tmax: 2 h
[1]; iv, 10 mg h^−1, CL, part A 2-h IV infusion 10 mg h^−1, geometric mean (CV%)
  clearance: 320 mL/min
[1]; iv, 10 mg h^−1, Vz, part A 2-h IV infusion 10 mg h^−1, geometric mean (CV%)
  Vd: 126 L
[1]; iv, 10 mg h^−1, t1/2, part A 2-h IV infusion 10 mg h^−1, geometric mean (CV%)
  half-life: 4.68 h
[1]; iv, 20 mg h^−1
  AUC(0-inf): 126000 ng·h/mL
  AUC(0-t): 124000 ng·h/mL
  Cmax: 1170 ng/mL
  Tmax: 60 h
[1]; iv, 20 mg h^−1, CL, part B 5-day IV infusion 20 mg h^−1, geometric mean (CV%)
  clearance: 317 mL/min
[1]; iv, 20 mg h^−1, Vz, part B 5-day IV infusion 20 mg h^−1, geometric mean (CV%)
  Vd: 219 L
[1]; iv, 20 mg h^−1, t1/2, part B 5-day IV infusion 20 mg h^−1, geometric mean (CV%)
  half-life: 7.65 h
[1]; iv, 25 mg h^−1
  AUC(0-inf): 2730 ng·h/mL
  AUC(0-t): 1740 ng·h/mL
  Cmax: 1120 ng/mL
  Tmax: 2 h
[1]; iv, 25 mg h^−1, CL, part A 2-h IV infusion 25 mg h^−1, geometric mean (CV%)
  clearance: 312 mL/min
[1]; iv, 25 mg h^−1, Vz, part A 2-h IV infusion 25 mg h^−1, geometric mean (CV%)
  Vd: 129 L
[1]; iv, 25 mg h^−1, t1/2, part A 2-h IV infusion 25 mg h^−1, geometric mean (CV%)
  half-life: 4.94 h
[1]; iv, CL, range across panels, part A 2-h IV infusion
  clearance: 276 to 358 mL/min
[1]; iv, CL, range across panels, part B 5-day IV infusion
  clearance: 280 to 324 mL/min
[1]; iv, Vss, range across panels, 5-day IV infusion
  Vd: 164 to 218 L
[1]; iv, Vz, range across panels, 2-h IV infusion
  Vd: 72 to 129 L
[1]; t1/2 range over all dose groups, part B, Japanese subjects
  half-life: 6.42 to 8.28 h
[1]; t1/2 range over all dose groups, part B, non-Japanese subjects
  half-life: 6.05 to 8.32 h
[1]; [15]
  Steady‐state concentration: 55.81 (20.5) ng ml ^−1
  Weight‐corrected steady‐state concentration: 4.21 (21.6) kg μg.ml ^−1
[1]; [16]
  Steady‐state concentration: 49.88 (27.3) ng ml ^−1
  Weight‐corrected steady‐state concentration: 4.34 (15.5) kg μg.ml ^−1
[1]; [17]
  Steady‐state concentration: 188.03 (17.9) ng ml ^−1
  Weight‐corrected steady‐state concentration: 14.33 (32.9) kg μg.ml ^−1
[1]; [18]
  Steady‐state concentration: 157.76 (12.9) ng ml ^−1
  Weight‐corrected steady‐state concentration: 14.10 (22.7) kg μg.ml ^−1
[1]; [19]
  Steady‐state concentration: 439.27 (18.9) ng ml ^−1
  Weight‐corrected steady‐state concentration: 29.60 (18.9) kg μg.ml ^−1
[1]; [20]
  Steady‐state concentration: 458.34 (18.9) ng ml ^−1
  Weight‐corrected steady‐state concentration: 34.47 (23.5) kg μg.ml ^−1
[1]; [21]
  Steady‐state concentration: 1161.68 (17.7) ng ml ^−1
  Weight‐corrected steady‐state concentration: 76.07 (30.1) kg μg.ml ^−1
[1]; [22]
  Steady‐state concentration: 887.21 (23.3) ng ml ^−1
  Weight‐corrected steady‐state concentration: 70.57 (32.4) kg μg.ml ^−1
[1]; parts A and B
  dose proportionality: demonstrated dose proportionality
[2]; 2-h and 5-day IV infusions, healthy subjects
  tolerability: well tolerated
[2]; BMS-962212 groups
  AE frequency: ecchymosis: 1.4%
  AE frequency: flatulence: 1.4%
  AE frequency: headache: 2.9%
  AE frequency: infusion site pain or irritation: 5.9%
  AE frequency: nausea: 2.9%
  AE frequency: upper respiratory tract infection: 2.9%
[2]; Japanese subjects
  frequency of AEs: 17.6%
[2]; all subjects assigned to BMS-962212 (12 of 68)
  subjects reporting AEs: 17.6%
[2]; no dose-limiting AEs observed
  maximum tolerated dose: not established
[2]; non-Japanese subjects
  frequency of AEs: 29.4%
[2]; part A, subjects assigned to BMS-962212 (four of 34)
  subjects reporting AEs: 11.7%
[2]; part B, subjects assigned to BMS-962212 (eight of 34)
  subjects reporting AEs: 23.5%
[2]; parts A and B
  bleeding: no signs of bleeding
  deaths or serious AEs: No deaths or serious AEs were reported
Renal safety assessment; panel 1A, 1.5 mg h^−1 2-h IV infusion, day −2 vs day 1, and vs placebo
  iohexol plasma clearance (GFR): No clinically relevant differences
Renal safety assessment; [23]
  serum creatinine mean increase: 0.28 mg/dL
  serum creatinine median increase: 0.35 mg/dL
Renal safety assessment; part A panel 1, 1.5 mg h^−1, 12 h postdose
  mean percentage decrease in eGFR (based on serum creatinine): −22.58%
Rabbit models
  antithrombotic efficacy and haemostasis: shows antithrombotic efficacy at doses which preserve haemostasis
